According to paper PMC10673615, “Quercetin-1,2,3-Triazole Hybrids as Multifunctional Anti-Alzheimer’s Agents” (Molecules, 2023):
Like-named read-outs stand apart in the source and are kept apart here.

What was measured:
Artemia salina = Artemia salina lethal toxicity assay; assay type: in vivo; details: Artemia salina nauplii; quality control
Method: Artemia salina was used for in vivo general toxicity assessment of the promising hybrids IVb, IVd, and IIf; the results are shown in Table 4 and Figure 7. K2Cr2O7 was used as a control. Hybrid IVd presented the lowest toxicity.
The ARTOXKIT M protocol was used. The percentage of dyed nauplii of Artemia salina, grown in the presence of variable concentrations of the inhibitor compounds, was measured to determine the LC50 values. A test with K2Cr2O7 was used for quality control.

eqBuChE = target: T1, eqBuChE (Equus caballus, UniProt P81908); assay: Ellman cholinesterase inhibitory assay, eqBuChE (screening and IC50); assay type: biochemical; details: for inhibition at 100 µM: compound 100 µM, substrate 3 mM
T1 construct: equine serum butyrylcholinesterase (eqBuChE); purchased Sigma-Aldrich (lyophilized powder, 10.9 U/mg); host or cells: equine serum
Method: (§1) Firstly, the inhibitory activity of the quercetin-1,2,3-triazole hybrids I–IV was screened in vitro on eeAChE and eqBuChE at a concentration of 100 μM (these enzymes are considered as models of the human isoform). The ChE inhibitory activity of all compounds was evaluated using the method of Ellman.
(§2) The inhibitory activities of title compounds against commercially available cholinesterases (eeAChE) (Electrophorus electricus, Type V-S), eqBuChE (equine serum), were conducted using minor modifications of Ellman’s assay. Nine different concentrations ([…], 37.5, 75, 150, and 300 μM in H2O:DMSO (50:50)) of each test compound were used to determine the enzyme-inhibition activity. Briefly, 55 μL of 50 mM Tris-HCl buffer at pH 8, 25 μL of eqBuChE (0.03 U/mL), 20 μL of the test or standard compounds, and 125 μL of DTNB (0.8 mM) were incubated in 96-well plates at 37 °C for 15 min. Further, 25 μL of the substrate, BTCI (0.8 mM), was added, and the solution was incubated for additional 15 min. Finally, the absorbance was measured at 412 nm wavelength using a Microplate Spectrophotometry (TriStar® S LB 942 model instrument). The IC50 values were determined from the absorbance obtained for various concentrations of the test and the standard compounds. All determinations were performed in triplicate.
(§3) To determine the % of inhibition ([I] = 100 μM), the substrate concentration (acetylthiocholine iodide for AChE; S-butyrylthiocholine iodide for BuChE) was fixed at 3 mM.

eeAChE = target: T2, eeAChE (Electrophorus electricus, UniProt O42275); assay: Ellman cholinesterase inhibitory assay, eeAChE screening; assay type: biochemical; details: compound 100 µM; substrate 3 mM
T2 construct: catalogue number not given
Method: as §1, §2, §3

[1] = DPPH radical scavenging antioxidant assay; details: 100 μg/mL
Method: To assess the antioxidant activity of hybrids IVa–e, IIf and quercetin, the 2,2-diphenyl-1-[…] (DPPH) radical scavenging colorimetric method was used, which is one of the most widely used methods for determining antioxidant activity. In this method, antioxidants react with DPPH (which has a strong violet color) and convert it into yellow diphenylpicrylhydrazine. Compounds were assayed in the range of concentrations from 3 to 200 μg/mL. Ascorbic acid was used as positive control. […] Another piece of evidence is the similarity between the % inhibition values of hybrids IVa,b and IVd,e and quercetin.
The colorimetric DPPH assay was carried out as described in [33]. […] In brief, 30 μL of a test compound (in MeOH) was mixed with 200 μL of DPPH (100 μM in methanol) in a 96-well plate in triplicate. After 30 min incubation at room temperature in the absence of light, the absorbances were measured at 517 nm using Microplate Spectrophotometry (TriStar® S LB 942 model instrument). The free radical scavenging activity results are expressed as a percentage of DPPH inhibition according to the following formula:
% of Inhibition = 100[(A(Blank) − A(sample))/A(blank)], where A(blank) consists of methanol (30 μL) mixed with DPPH (200 μL) absorbance, and A(sample) is the absorbance value for the added sample concentration compound mixed with DPPH. Ascorbic acid was used as a positive control.

MCF-7 cells = assay: Protective assay against hydrogen peroxide-induced oxidative stress in MCF-7 cells; assay type: cell-based, Human; details: 100 µM H2O2, 2 h
Method: Given the importance of oxidative stress-induced apoptosis of neuronal cells in AD, we present here a study to investigate the effect of quercetin-1,2,3-triazole hybrids on H2O2-induced oxidative damage in cultured MCF-7 cells, used as a human cell model. Viability was assessed with the WST-1 test in the absence and in the presence of an oxidative stressor (10^−4 M H2O2).
MCF-7 (Human breast adenocarcinoma (MERCK—# 86012803-DNA-5UG), Database Name: ECACC collection, Accession Numbers: 86012803) was the cell line elected as a cell injury model for the study of the potential protective effect of the butyrylcholinesterase inhibitors (hybrids) against hydrogen peroxide-induced oxidative stress. Cytotoxicity of the hybrids was also evaluated.
The culture medium was subsequently replaced with different final concentrations (6.25–50 μM) of the compounds to be tested. Negative controls were prepared, incubating cells in culture media.
Parallel experiments were performed for cytotoxicity assessment and for protective effect against hydrogen peroxide-induced oxidative stress evaluation. First, 10 μL of PBS was added in the designated wells; second, 10 μL of H2O2 (reaching a final concentration of 100 µM) was added. Following a 2 h incubation period at 37 °C in 5% CO2 atmosphere incubator, cellular viability was measured by adding WST-1 dehydrogenases substrate and incubating for 1 h, and the amount of formazan dye produced was evaluated by measuring the absorbance at 440 nm.

[2] = concentration range 1.2-300 µM, BTCI 0.8 mM, read-out: IC50 values for eqBuChE

T2 sequence (O42275 24-633): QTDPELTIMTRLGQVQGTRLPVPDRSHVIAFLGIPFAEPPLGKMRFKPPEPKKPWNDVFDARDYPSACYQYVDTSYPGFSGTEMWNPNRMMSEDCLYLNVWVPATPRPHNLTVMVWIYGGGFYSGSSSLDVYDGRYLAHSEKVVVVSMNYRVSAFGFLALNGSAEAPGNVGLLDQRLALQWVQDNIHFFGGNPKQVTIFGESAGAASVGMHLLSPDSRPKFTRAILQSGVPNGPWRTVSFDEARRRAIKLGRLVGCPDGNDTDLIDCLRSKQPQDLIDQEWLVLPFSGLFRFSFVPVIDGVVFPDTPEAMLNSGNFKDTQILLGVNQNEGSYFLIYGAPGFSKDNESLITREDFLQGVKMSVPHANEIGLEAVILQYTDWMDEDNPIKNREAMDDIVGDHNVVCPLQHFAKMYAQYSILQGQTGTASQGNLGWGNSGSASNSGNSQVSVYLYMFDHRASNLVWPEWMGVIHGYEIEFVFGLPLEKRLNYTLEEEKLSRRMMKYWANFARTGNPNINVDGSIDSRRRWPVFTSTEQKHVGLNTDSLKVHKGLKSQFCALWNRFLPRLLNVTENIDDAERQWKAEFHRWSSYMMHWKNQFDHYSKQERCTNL
T1 sequence (P81908 whole entry): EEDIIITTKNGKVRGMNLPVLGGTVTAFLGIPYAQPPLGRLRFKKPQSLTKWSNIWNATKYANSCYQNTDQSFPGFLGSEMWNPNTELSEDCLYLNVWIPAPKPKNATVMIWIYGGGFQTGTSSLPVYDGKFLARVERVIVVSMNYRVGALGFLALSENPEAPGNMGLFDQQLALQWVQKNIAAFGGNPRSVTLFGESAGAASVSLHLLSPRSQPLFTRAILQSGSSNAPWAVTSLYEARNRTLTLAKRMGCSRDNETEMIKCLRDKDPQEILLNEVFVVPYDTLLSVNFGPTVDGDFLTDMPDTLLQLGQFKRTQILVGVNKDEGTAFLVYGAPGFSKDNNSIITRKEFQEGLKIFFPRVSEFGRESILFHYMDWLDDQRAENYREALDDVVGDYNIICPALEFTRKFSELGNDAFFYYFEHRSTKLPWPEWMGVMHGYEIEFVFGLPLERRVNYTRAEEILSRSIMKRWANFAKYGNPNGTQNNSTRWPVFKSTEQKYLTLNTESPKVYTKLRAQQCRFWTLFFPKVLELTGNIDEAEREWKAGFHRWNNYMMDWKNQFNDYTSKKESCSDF

Compound | LC50 (Artemia salina) [µg/mL] | inhibition at 100 µM (eqBuChE) [%] | IC50 (eqBuChE; [2]) [µM] | inhibition at 100 µM (eeAChE) [%] | DPPH antioxidant activity [1] | IC50 (eqBuChE) [µM] | cellular antioxidant protection against H2O2 (MCF-7 cells)
[K+].[K+].[O]=[Cr](=[O])([O-])[O][Cr](=[O])(=[O])[O-] [Hybrid K2Cr2O7, K2Cr2O7, reference compound] | 22.7 | – | – | – | – | – | –
O=c1c(OCCCCn2cc(C3(O)CCCC3)nn2)c(-c2ccc(O)c(O)c2)oc2cc(O)cc(O)c12 [IVc, 2-(3,4-Dihydroxyphenyl)-5,7-dihydroxy-3-(4-(4-(1-hydroxycyclopentyl)-1H-1,2,3-triazol-1-yl)butoxy)-4H-chromen-4-one] | – | 69.9 | 65.7 | 21.6 | – | – | –
COc1cc(OC)c2c(=O)c(OCc3cn(Cc4cccc(Cl)c4)nn3)c(-c3ccc(OC)c(OC)c3)oc2c1 [Ib, 3-((1-(3-Chlorobenzyl)-1H-1,2,3-triazol-4-yl)methoxy)-2-(3,4-dimethoxyphenyl)-5,7-dimethoxy-4H-chromen-4-one] | – | 63.3 | – | 0 | – | – | –
O=C1C(=O)N(Cc2cn(CCCCOc3c(-c4ccc(OCc5ccccc5)c(OCc5ccccc5)c4)oc4cc(OCc5ccccc5)cc(OCc5ccccc5)c4c3=O)nn2)c2ccccc21 [IIIf, 1-((1-(4-((5,7-Bis(benzyloxy)-2-(3,4-bis(benzyloxy)phenyl)-4-oxo-4H-chromen-3-yl)oxy)butyl)-1H-1,2,3-triazol-4-yl)methyl)indoline-2,3-dione] | – | 34.5 | – | 0 | – | – | –
Cc1ccc(C(C)C)c(OCc2cn(CCCCOc3c(-c4ccc(O)c(O)c4)oc4cc(O)cc(O)c4c3=O)nn2)c1 [IVe, 2-(3,4-Dihydroxyphenyl)-5,7-dihydroxy-3-(4-(4-((2-isopropyl-5-methylphenoxy)methyl)-1H-1,2,3-triazol-1-yl)butoxy)-4H-chromen-4-one] | – | 63.4 | > 150 | 29.1 | potent antioxidant activity | – | –
CCCc1cn(CCCCOc2c(-c3ccc(OC)c(OC)c3)oc3cc(OC)cc(OC)c3c2=O)nn1 [IIh, 2-(3,4-Dimethoxyphenyl)-5,7-dimethoxy-3-(4-(4-propyl-1H-1,2,3-triazol-1-yl)butoxy)-4H-chromen-4-one] | – | 7.97 | > 300 | 38.6 | – | – | –
COc1cc(OC)c2c(=O)c(OCCCCn3cc(C(C)(C)N)nn3)c(-c3ccc(OC)c(OC)c3)oc2c1 [IIi, 3-(4-(4-(2-Aminopropan-2-yl)-1H-1,2,3-triazol-1-yl)butoxy)-2-(3,4-dimethoxyphenyl)-5,7-dimethoxy-4H-chromen-4-one] | – | 74.4 | 70.2 | 0 | – | – | –
COc1cc(OC)c2c(=O)c(OCCCCn3cc(CO)nn3)c(-c3ccc(OC)c(OC)c3)oc2c1 [IIg, 2-(3,4-Dimethoxyphenyl)-3-(4-(4-(hydroxymethyl)-1H-1,2,3-triazol-1-yl)butoxy)-5,7-dimethoxy-4H-chromen-4-one] | – | 53.8 | > 300 | 0 | – | – | –
COc1cc(OC)c2c(=O)c(OCCCCn3cc(COc4cc(C)ccc4C(C)C)nn3)c(-c3ccc(OC)c(OC)c3)oc2c1 [IIe, 2-(3,4-Dimethoxyphenyl)-3-(4-(4-((2-isopropyl-5-methylphenoxy)methyl)-1H-1,2,3-triazol-1-yl)butoxy)-5,7-dimethoxy-4H-chromen-4-one] | – | 81.7 | 26.6 | 4.13 | – | – | –
O=c1c(OCCCCn2cc(-c3ccccc3)nn2)c(-c2ccc(OCc3ccccc3)c(OCc3ccccc3)c2)oc2cc(OCc3ccccc3)cc(OCc3ccccc3)c12 [IIIa, 5,7-Bis(benzyloxy)-2-(3,4-bis(benzyloxy)phenyl)-3-(4-(4-phenyl-1H-1,2,3-triazol-1-yl)butoxy)-4H-chromen-4-one] | – | 46.9 | – | 40.6 | – | – | –
COc1cc(OC)c2c(=O)c(OCCCCn3cc(C4(O)CCCC4)nn3)c(-c3ccc(OC)c(OC)c3)oc2c1 [IIc, 2-(3,4-Dimethoxyphenyl)-3-(4-(4-(1-hydroxycyclopentyl)-1H-1,2,3-triazol-1-yl)butoxy)-5,7-dimethoxy-4H-chromen-4-one] | – | 69.6 | > 300 | 0 | – | – | –
O=c1c(O)c(-c2ccc(O)c(O)c2)oc2cc(O)cc(O)c12 [Quercetin] | – | 100 | – | 8.18 | – | 18.2 | low capacity in cellular protection
COc1cc(OC)c2c(=O)c(OCCCCn3cc(C(C)(C)O)nn3)c(-c3ccc(OC)c(OC)c3)oc2c1 [IId, 2-(3,4-Dimethoxyphenyl)-3-(4-(4-(2-hydroxypropan-2-yl)-1H-1,2,3-triazol-1-yl)butoxy)-5,7-dimethoxy-4H-chromen-4-one] | – | 60.6 | > 300 | 0 | – | – | –
COc1cc(OC)c2c(=O)c(OCc3cn(Cc4ccccc4)nn3)c(-c3ccc(OC)c(OC)c3)oc2c1 [Ia, 3-((1-Benzyl-1H-1,2,3-triazol-4-yl)methoxy)-2-(3,4-dimethoxyphenyl)-5,7-dimethoxy-4H-chromen-4-one] | – | 54.4 | – | 0 | – | – | –
CC(C)(O)c1cn(CCCCOc2c(-c3ccc(OCc4ccccc4)c(OCc4ccccc4)c3)oc3cc(OCc4ccccc4)cc(OCc4ccccc4)c3c2=O)nn1 [IIId, 5,7-Bis(benzyloxy)-2-(3,4-bis(benzyloxy)phenyl)-3-(4-(4-(2-hydroxypropan-2-yl)-1H-1,2,3-triazol-1-yl)butoxy)-4H-chromen-4-one] | – | 27.3 | – | 15.1 | – | – | –
COc1cc(OC)c2c(=O)c(OCCCCn3cc(-c4ccccc4)nn3)c(-c3ccc(OC)c(OC)c3)oc2c1 [IIa, 2-(3,4-Dimethoxyphenyl)-5,7-dimethoxy-3-(4-(4-phenyl-1H-1,2,3-triazol-1-yl)butoxy)-4H-chromen-4-one] | – | 55.3 | > 300 | 7.75 | – | – | –
COc1cc(OC)c2c(=O)c(OCCCCn3cc(C4CC4)nn3)c(-c3ccc(OC)c(OC)c3)oc2c1 [IIb, 2-(3,4-Dimethoxyphenyl)-3-(4-(4-cyclopropyl-1H-1,2,3-triazol-1-yl)butoxy)-5,7-dimethoxy-4H-chromen-4-one] | – | 54.4 | > 300 | 0 | – | – | –
O=c1c(OCCCCn2cc(C3(O)CCCC3)nn2)c(-c2ccc(OCc3ccccc3)c(OCc3ccccc3)c2)oc2cc(OCc3ccccc3)cc(OCc3ccccc3)c12 [IIIc, 5,7-Bis(benzyloxy)-2-(3,4-bis(benzyloxy)phenyl)-3-(4-(4-(1-hydroxycyclopentyl)-1H-1,2,3-triazol-1-yl)butoxy)-4H-chromen-4-one] | – | 26.9 | – | 17.2 | – | – | –
